Data: paper PMC9657098, “Synthesis, In Vitro Biological Evaluation and In Silico Molecular Docking Studies of Indole Based Thiadiazole Derivatives as Dual Inhibitor of Acetylcholinesterase and Butyrylchloinesterase” (Molecules, 2022)
Where two headings read alike, the source gives them in different places.

Experiments:
AChE = AChE (Homo sapiens, UniProt P22303); assay: biochemical
Procedure: (§1) 3.5. Acetylcholinesterase Activity Assay Protocol
(§2) The inhibition of AChE and BChE was determined using a method described earlier.
(§3) Briefly, the stock solutions (1mg/mL) of test analogues were prepared using DMSO. The working solutions (1–100μg/mL) were prepared using serial dilutions (a serial dilution means a series of diluted solutions, e.g., 0.1mg/mL, 0.2mg/mL and so on; the solutions contained 5% DMSO and 95% water). The various concentrations of test compounds (10μL) were pre-incubated with sodium phosphate buffer (0.1 M; pH 8.0; 150μL) and AChE (0.1 U/mL; 20μL) for 15 min at 25°C. The reaction was initiated via the addition of DTNB (1 mM; 10μL) and […] (1 mM; 10 μL). The mixture of reaction was mixed using a cyclomixer and incubated for […]
(§4) wavelength against the blank reading containing 10μL DMSO instead of the test compound (the solution contained 5% DMSO and 95% water). Utilizing the formula given in Equation (1), the percentage of inhibition was computed, and the IC50 was determined under the positive control […]
(§5) % Inhibition = (Absorbance of control—Absorbance of compound)/Absorbance of control × 100 […]
(§6) which was calculated by constructing a non-linear regression graph between the percentages of inhibition vs. concentration, using Graph Pad prism software (version 5.3)(accessed on 5 August […]

BuChE = BuChE (Homo sapiens, UniProt P06276); assay: biochemical
Procedure: as §1, §2, §3, §4, §5, §6

[1] = in vitro enzyme inhibition, 25°C, pH 8.0, read-out: AChE IC50 (µM ± SEM)
[2] = in vitro enzyme inhibition, read-out: BuChE IC50 (µM ± SEM)

Chain of BuChE (P06276 29-602): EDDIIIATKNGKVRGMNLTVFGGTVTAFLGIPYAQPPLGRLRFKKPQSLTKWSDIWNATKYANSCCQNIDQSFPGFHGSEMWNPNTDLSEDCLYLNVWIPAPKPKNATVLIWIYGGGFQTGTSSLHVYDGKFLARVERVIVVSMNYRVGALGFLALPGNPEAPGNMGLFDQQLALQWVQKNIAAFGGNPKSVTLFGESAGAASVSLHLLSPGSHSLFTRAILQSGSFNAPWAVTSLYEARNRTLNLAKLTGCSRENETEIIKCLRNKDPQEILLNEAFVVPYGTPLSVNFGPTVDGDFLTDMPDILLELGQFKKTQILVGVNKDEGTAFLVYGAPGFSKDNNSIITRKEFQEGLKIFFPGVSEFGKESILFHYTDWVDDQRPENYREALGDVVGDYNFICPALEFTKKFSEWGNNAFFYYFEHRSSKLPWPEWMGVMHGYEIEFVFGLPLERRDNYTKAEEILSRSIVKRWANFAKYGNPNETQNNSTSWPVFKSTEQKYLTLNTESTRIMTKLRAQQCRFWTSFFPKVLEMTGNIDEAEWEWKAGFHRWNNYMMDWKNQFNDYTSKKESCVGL
Chain of AChE (P22303 32-614): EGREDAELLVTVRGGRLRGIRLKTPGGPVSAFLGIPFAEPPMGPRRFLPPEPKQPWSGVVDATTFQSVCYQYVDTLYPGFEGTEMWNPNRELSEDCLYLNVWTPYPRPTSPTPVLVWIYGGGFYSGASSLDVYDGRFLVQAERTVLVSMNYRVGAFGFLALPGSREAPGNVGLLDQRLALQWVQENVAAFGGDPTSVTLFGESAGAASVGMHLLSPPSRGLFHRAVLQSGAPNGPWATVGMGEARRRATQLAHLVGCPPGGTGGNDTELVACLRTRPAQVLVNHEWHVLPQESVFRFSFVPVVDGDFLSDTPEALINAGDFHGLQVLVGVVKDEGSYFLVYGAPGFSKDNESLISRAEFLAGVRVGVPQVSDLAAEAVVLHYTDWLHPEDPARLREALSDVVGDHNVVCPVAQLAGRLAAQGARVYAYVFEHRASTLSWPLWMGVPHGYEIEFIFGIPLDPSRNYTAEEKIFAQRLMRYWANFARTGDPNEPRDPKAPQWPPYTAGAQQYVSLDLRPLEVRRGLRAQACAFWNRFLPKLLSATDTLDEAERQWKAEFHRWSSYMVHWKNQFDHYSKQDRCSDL

| Compound | IC50 (AChE; [1]) [µM] | IC50 (BuChE; [2]) [µM] | IC50 (AChE; read-out: IC50 for AchE (abstract)) [µM] | IC50 (AChE) [µM] | IC50 (BuChE) [µM] |
| --- | --- | --- | --- | --- | --- |
| Fc1ccccc1Nc1nnc(Cc2cc3cc(Cl)ccc3[nH]2)s1 [Compound 9] | 0.35 ± 0.05 | 0.5 ± 0.05 | – | – | – |
| Fc1ccc(Nc2nnc(Cc3cc4cc(Cl)ccc4[nH]3)s2)cc1 [Compound 8] | – | 0.2 ± 0.1 | 0.15 ± 0.05 | – | – |
| COc1c(Nc2nnc(Cc3cc4cc(Cl)ccc4[nH]3)s2)cccc1[N+](=O)[O-] [Compound 12] | 14.7 ± 0.3 | 19.2 ± 0.3 | – | – | – |
| O=[N+]([O-])c1cccc([N+](=O)[O-])c1Nc1nnc(Cc2cc3cc(Cl)ccc3[nH]2)s1 [Compound 4] | – | – | – | 2.8 ± 0.1 | 5.4 ± 0.1 |
| O=[N+]([O-])c1cc(Br)cc(Nc2nnc(Cc3cc4cc(Cl)ccc4[nH]3)s2)c1 [Compound 11] | 12.3 ± 0.2 | 18.4 ± 0.3 | – | – | – |
| FC(F)(F)c1ccc(Nc2nnc(Cc3cc4cc(Cl)ccc4[nH]3)s2)cc1Cl [Compound 14] | 0.4 ± 0.05 | 2.6 ± 0.1 | – | – | – |
| COc1cc(Nc2nnc(Cc3cc4cc(Cl)ccc4[nH]3)s2)ccc1[N+](=O)[O-] [Compound 13] | 19.1 ± 0.3 | 25.3 ± 0.4 | – | – | – |
| O=[N+]([O-])c1ccc(Br)c(Nc2nnc(Cc3cc4cc(Cl)ccc4[nH]3)s2)c1 [Compound 16] | – | 34.3 ± 0.6 | – | – | – |
| O=[N+]([O-])c1cc(Nc2nnc(Cc3cc4cc(Cl)ccc4[nH]3)s2)ccc1Br [Compound 15] | 22.2 ± 0.4 | 32.1 ± 0.1 | – | – | – |
| Fc1cccc(Nc2nnc(Cc3cc4cc(Cl)ccc4[nH]3)s2)c1 [Compound 10] | 1.1 ± 0.1 | 2.8 ± 0.1 | – | – | – |
| Cc1ccc(Nc2nnc(Cc3cc4cc(Cl)ccc4[nH]3)s2)cc1C [Compound 5] | 5.8 ± 0.2 | 9.3 ± 0.1 | – | – | – |
| Cc1cccc(Nc2nnc(Cc3cc4cc(Cl)ccc4[nH]3)s2)c1C [Compound 6] | 8.7 ± 0.2 | 10.9 ± 0.1 | – | – | – |
